Source: patent publication US6838414B2, “Substituted aryl sulphonyl(thio)ureas used as herbicides” (Bayer Aktiengesellschaft, priority 1996, dated 2005)

Columns and labels:
Type in all cases: in vivo
weeds [1] = test: Pre-emergence test (overall statement); details: application rates between 30 g and 125 g of a.i. per hectare
Method: (§1) To produce a suitable preparation of active compound, 1 part by weight of active compound is mixed with the stated amount of solvent, the stated amount of emulsifier is added and the concentrate is diluted with water to the desired concentration.
(§2) Seeds of the test plants are sown in normal soil. After about 24 hours, the soil is sprayed with the preparation of the active compound. Advantageously, the amount of water per unit area is kept constant. The active compound concentration in the preparation is not important, only the active compound application rate per unit area is critical.
(§3) After three weeks, the degree of damage to the plants is rated in % damage in comparison with the development of the untreated control.
(§4) The figures denote: • 0%=no effect (like untreated control) • 100%=total destruction

Alopecurus [2] = test: Post-emergence test/greenhouse; details: rated after three weeks vs untreated control
Method: as §1
(§5) Test plants which have a height of 5-15 cm are sprayed with the preparation of the active compound in such a way as to apply the particular amounts of active compound desired per unit area. The concentration of the spray liquor is chosen so that the amounts of active compound desired in each case are applied in 1000 l of water/ha.
as §3, §4

Matricaria = test: Post-emergence test/greenhouse; details: rated after three weeks vs untreated control
Method: as §1, §5, §3, §4

Abutilon = test: Post-emergence test/greenhouse; details: rated after three weeks vs untreated control
Method: as §1, §5, §3, §4

weeds [3] = test: Post-emergence test/greenhouse
Method: as §1, §5, §3, §4

Echinochloa = test: Post-emergence test/greenhouse; details: rated after three weeks vs untreated control
Method: as §1, §5, §3, §4

Alopecurus [4] = test: Pre-emergence test/greenhouse; details: after three weeks
Method: as §1, §2, §3, §4

Sorghum = test: Pre-emergence test/greenhouse; details: after three weeks
Method: as §1, §2, §3, §4

Amaranthus = test: Pre-emergence test/greenhouse; details: after three weeks
Method: as §1, §2, §3, §4

Lolium = test: Pre-emergence test/greenhouse; details: after three weeks
Method: as §1, §2, §3, §4

Chenopodium = test: Pre-emergence test/greenhouse; details: after three weeks
Method: as §1, §2, §3, §4

Stellaria = test: Pre-emergence test/greenhouse; details: after three weeks
Method: as §1, §2, §3, §4

[5] = application rate 30 g of ai./ha
[6] = application rate 60 g of ai./ha

## COc1nc(NC(=O)NS(=O)(=O)c2c(C)cccc2OC(C)C)nc(OC)n1 [Example 38]
Weeds [1]
  activity against weeds: very strong activity against weeds
Alopecurus [2]; [5]
  degree of damage to the plants, Alopecurus: 60%
Matricaria; [5]
  degree of damage to the plants, Matricaria: 95%
Abutilon; [5]
  degree of damage to the plants, Abutilon: 95%
Weeds [3]
  activity against weeds: very strong activity against weeds
Echinochloa; [5]
  degree of damage to the plants, Echinochloa: 70%
Alopecurus [4]; 30 g of ai./ha
  Alopecurus, % damage: 100%
Sorghum; 30 g of ai./ha
  Sorghum, % damage: 100%
Amaranthus; 30 g of ai./ha
  Amaranthus, % damage: 80%
Lolium; 30 g of ai./ha
  Lolium, % damage: 100%
Chenopodium; 30 g of ai./ha
  Chenopodium, % damage: 100%
Stellaria; 30 g of ai./ha
  Steltaria, % damage: 100%

## CCOc1cccc(C)c1S(=O)(=O)NC(=O)Nc1nc(C)nc(OC)n1 [Example 32]
Weeds [1]
  activity against weeds: very strong activity against weeds
Alopecurus [2]; [6]
  degree of damage to the plants, Alopecurus: 70%
Matricaria; [6]
  degree of damage to the plants, Matricaria: 100%
Abutilon; [6]
  degree of damage to the plants, Abutilon: 100%
Weeds [3]
  activity against weeds: very strong activity against weeds
Echinochloa; [6]
  degree of damage to the plants, Echinochloa: 90%
Alopecurus [4]; 60 g of ai./ha
  Alopecurus, % damage: 95%
Sorghum; 60 g of ai./ha
  Sorghum, % damage: 95%
Amaranthus; 60 g of ai./ha
  Amaranthus, % damage: 100%
Lolium; 60 g of ai./ha
  Lolium, % damage: 100%
Chenopodium; 60 g of ai./ha
  Chenopodium, % damage: 100%
Stellaria; 60 g of ai./ha
  Steltaria, % damage: 100%

## COc1nc(C)nc(NC(=O)NS(=O)(=O)c2c(C)cccc2OC)n1 [Example 40]
Weeds [1]
  activity against weeds: very strong activity against weeds
Alopecurus [2]; [5]
  degree of damage to the plants, Alopecurus: 100%
Matricaria; [5]
  degree of damage to the plants, Matricaria: 100%
Abutilon; [5]
  degree of damage to the plants, Abutilon: 95%
Weeds [3]
  activity against weeds: very strong activity against weeds
Echinochloa; [5]
  degree of damage to the plants, Echinochloa: 95%
Alopecurus [4]; 30 g of ai./ha
  Alopecurus, % damage: 100%
Sorghum; 30 g of ai./ha
  Sorghum, % damage: 100%
Amaranthus; 30 g of ai./ha
  Amaranthus, % damage: 100%
Lolium; 30 g of ai./ha
  Lolium, % damage: 100%
Chenopodium; 30 g of ai./ha
  Chenopodium, % damage: 100%
Stellaria; 30 g of ai./ha
  Steltaria, % damage: 100%

## CCOc1cccc(C)c1S(=O)(=O)NC(=O)Nc1nc(OC)nc(OC)n1 [Example 31]
Weeds [1]
  activity against weeds: very strong activity against weeds
Alopecurus [2]; [6]
  degree of damage to the plants, Alopecurus: 80%
Matricaria; [6]
  degree of damage to the plants, Matricaria: 100%
Abutilon; [6]
  degree of damage to the plants, Abutilon: 100%
Weeds [3]
  activity against weeds: very strong activity against weeds
Echinochloa; [6]
  degree of damage to the plants, Echinochloa: 80%
Alopecurus [4]; 60 g of ai./ha
  Alopecurus, % damage: 95%
Sorghum; 60 g of ai./ha
  Sorghum, % damage: 90%
Amaranthus; 60 g of ai./ha
  Amaranthus, % damage: 95%
Lolium; 60 g of ai./ha
  Lolium, % damage: 100%
Chenopodium; 60 g of ai./ha
  Chenopodium, % damage: 100%
Stellaria; 60 g of ai./ha
  Steltaria, % damage: 95%

## CCOc1cccc(C(F)(F)F)c1S(=O)(=O)NC(=O)Nc1nc(OC)nc(OC)n1 [Example 7]
Weeds [1]
  activity against weeds: very strong activity against weeds
Alopecurus [2]; [5]
  degree of damage to the plants, Alopecurus: 95%
Matricaria; [5]
  degree of damage to the plants, Matricaria: 100%
Abutilon; [5]
  degree of damage to the plants, Abutilon: 95%
Weeds [3]
  activity against weeds: very strong activity against weeds
Echinochloa; [5]
  degree of damage to the plants, Echinochloa: 95%
Alopecurus [4]; 60 g of ai./ha
  Alopecurus, % damage: 100%
Sorghum; 60 g of ai./ha
  Sorghum, % damage: 100%
Amaranthus; 60 g of ai./ha
  Amaranthus, % damage: 95%
Lolium; 60 g of ai./ha
  Lolium, % damage: 95%
Chenopodium; 60 g of ai./ha
  Chenopodium, % damage: 100%
Stellaria; 60 g of ai./ha
  Steltaria, % damage: 95%

## CCCOc1cccc(C)c1S(=O)(=O)NC(=O)Nc1nc(C)nc(OC)n1 [Example 49]
Weeds [1]
  activity against weeds: very strong activity against weeds
Alopecurus [2]; [5]
  degree of damage to the plants, Alopecurus: 90%
Matricaria; [5]
  degree of damage to the plants, Matricaria: 100%
Abutilon; [5]
  degree of damage to the plants, Abutilon: 100%
Weeds [3]
  activity against weeds: very strong activity against weeds
Echinochloa; [5]
  degree of damage to the plants, Echinochloa: 80%
Alopecurus [4]; 30 g of ai./ha
  Alopecurus, % damage: 100%
Sorghum; 30 g of ai./ha
  Sorghum, % damage: 100%
Amaranthus; 30 g of ai./ha
  Amaranthus, % damage: 100%
Lolium; 30 g of ai./ha
  Lolium, % damage: 100%
Chenopodium; 30 g of ai./ha
  Chenopodium, % damage: 100%
Stellaria; 30 g of ai./ha
  Steltaria, % damage: 100%
